# Measured values reported in PubChem BioAssay (NCI).
#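 48-hour exposure; five concentrations; linearly interpolated endpoints. GI50 is the concentration that inhibits growth by half. The concentration for full growth arrest is given as TGI.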 *1 amine or outer side, *2 acyl side, *3 side chain or, on linkers, in order; H or OH if unused. Where a SMILES comes first, the peptide text is derived from it. [ ]: non-standard residue; d: D form. The star is where a group is joined. X11 = C/C=C/CC(C)C(O)[C@H](N[*:1])C(=O)[*:2]; Decanoyl = CCCCCCCCCC(=O)*; Leu(ol) = CC(C)C[C@H](N)CO; Iva = CC[C@](C)(N)C(=O)O; Aib = CC(C)(N)C(=O)O
# How the values were obtained:
# Experiment in all cases: NCI anticancer screen, dose series, 48 h
# 786-0 renal = system: 786-0 renal
# ACHN renal = system: ACHN renal
# CAKI-1 renal = system: CAKI-1 renal
# NCI-H522 lung = system: NCI-H522 lung
# NCI-H23 lung = system: NCI-H23 lung
# DU-145 prostate = system: DU-145 prostate
# MDA-MB-435 = system: MDA-MB-435
# NCI-H226 lung = system: NCI-H226 lung
# UACC-62 melanoma = system: UACC-62 melanoma
# UO-31 renal = system: UO-31 renal
# TK-10 renal = system: TK-10 renal
# A498 renal = system: A498 renal
# SK-OV-3 ovarian = system: SK-OV-3 ovarian
# HCT-15 colon = system: HCT-15 colon
# OVCAR-8 ovarian = system: OVCAR-8 ovarian
# A549 NSCLC = system: A549 NSCLC
# UACC-257 melanoma = system: UACC-257 melanoma
# COLO 205 colon = system: COLO 205 colon
# KM12 colon = system: KM12 colon
# HL-60(TB) leukemia = system: HL-60(TB) leukemia
# LOX IMVI melanoma = system: LOX IMVI melanoma
# T-47D breast = system: T-47D breast
# PC-3 prostate = system: PC-3 prostate
# HCT-116 colon = system: HCT-116 colon
# SF-539 CNS = system: SF-539 CNS
# SW-620 colon = system: SW-620 colon
# OVCAR-5 ovarian = system: OVCAR-5 ovarian
# SF-295 CNS = system: SF-295 CNS
# RPMI-8226 leukemia = system: RPMI-8226 leukemia
compound,measurement,setting,value
C/C=C/CC(C)C(O)[C@H](NC(=O)[C@@H]1CCCN1C(=O)C(C)(C)NC(=O)CCCCCCCCC)C(=O)N[C@@](C)(CC)C(=O)N[C@@H](CCC(N)=O)C(=O)N[C@H](CCC(N)=O)C(=O)NC(C)(C)C(=O)NC(C)(C)C(=O)N[C@@H](CCC(N)=O)C(=O)N[C@H](CC(C)C)C(=O)N[C@H](CO)CC(C)C (stereo partly drawn) (Decanoyl-[Aib]P[X11][Iva]Q[dQ][Aib][Aib]Q[dL][Leu(ol)]),GI50,786-0 renal,1.81 µM
same,TGI,786-0 renal,3.35 µM
same,GI50,ACHN renal,2.45 µM
same,TGI,ACHN renal,6.09 µM
same,GI50,CAKI-1 renal,2.13 µM
same,TGI,CAKI-1 renal,5.02 µM
same,GI50,NCI-H522 lung,1.7 µM
same,TGI,NCI-H522 lung,3.36 µM
same,GI50,NCI-H23 lung,2.32 µM
same,TGI,NCI-H23 lung,5.42 µM
same,GI50,DU-145 prostate,1.73 µM
same,TGI,DU-145 prostate,3.13 µM
same,GI50,MDA-MB-435,1.68 µM
same,TGI,MDA-MB-435,3.05 µM
same,GI50,NCI-H226 lung,2.07 µM
same,TGI,NCI-H226 lung,4.56 µM
same,GI50,UACC-62 melanoma,1.75 µM
same,TGI,UACC-62 melanoma,3.38 µM
same,GI50,UO-31 renal,1.56 µM
same,TGI,UO-31 renal,3.12 µM
same,GI50,TK-10 renal,2.13 µM
same,TGI,TK-10 renal,4.93 µM
same,GI50,A498 renal,1.94 µM
same,TGI,A498 renal,3.68 µM
same,GI50,SK-OV-3 ovarian,3.85 µM
same,TGI,SK-OV-3 ovarian,8.71 µM
same,GI50,HCT-15 colon,2.54 µM
same,TGI,HCT-15 colon,6.93 µM
same,GI50,OVCAR-8 ovarian,1.84 µM
same,TGI,OVCAR-8 ovarian,3.99 µM
same,GI50,A549 NSCLC,3.02 µM
same,TGI,A549 NSCLC,9.38 µM
same,GI50,UACC-257 melanoma,1.77 µM
same,TGI,UACC-257 melanoma,3.37 µM
same,GI50,COLO 205 colon,2 µM
same,TGI,COLO 205 colon,4.44 µM
same,GI50,KM12 colon,1.95 µM
same,TGI,KM12 colon,3.94 µM
same,GI50,HL-60(TB) leukemia,1.93 µM
same,TGI,HL-60(TB) leukemia,4.12 µM
same,GI50,LOX IMVI melanoma,1.73 µM
same,TGI,LOX IMVI melanoma,3.3 µM
same,GI50,T-47D breast,2.31 µM
same,TGI,T-47D breast,5.95 µM
same,GI50,PC-3 prostate,1.84 µM
same,TGI,PC-3 prostate,3.65 µM
same,GI50,HCT-116 colon,2.41 µM
same,TGI,HCT-116 colon,6.09 µM
same,GI50,SF-539 CNS,1.76 µM
same,TGI,SF-539 CNS,3.17 µM
same,GI50,SW-620 colon,2.75 µM
same,TGI,SW-620 colon,7.17 µM
same,GI50,OVCAR-5 ovarian,1.73 µM
same,TGI,OVCAR-5 ovarian,3.29 µM
same,GI50,SF-295 CNS,1.76 µM
same,TGI,SF-295 CNS,3.32 µM
same,GI50,RPMI-8226 leukemia,2.05 µM
same,TGI,RPMI-8226 leukemia,4.51 µM
